The record followed here is ChEMBL document CHEMBL3638759, “Substituted 2-aza-bicyclo[2.2.1]heptane-3-carboxylic acid (cyano-methyl)-amides inhibitors of cathepsin C” (2014).

The target in the test is Dipeptidyl peptidase 1 (Homo sapiens, UniProt P53634). Put plainly: Inhibition Assay: The following buffers were used: MES buffer: 25 mM MES, 50 mM NaCl, 5 mM DTT, adjusted to pH 6.0, containing 0.1% BSA; TAGZyme Buffer: 20 mM NaH2PO4, 150 mM NaCl adjusted to pH is 6.0 with HClAssay Conditions:The recombinant human DPPI was diluted in TAGZyme buffer to 1 U/ml (38.1 ug/ml, respectively), and then activated by mixing in a 1:2 ratio with a Cysteamine aqueous solution (2 mM) and incubating for 5 mM at room temperature.Five uL test compound (final concentration 0.1 nM to 100 uM) in aqua bidest (containing 4% DMSO, final DMSO concentration 1%) were mixed with 10 uL of DPPI in MES buffer (final concentration 0.0125 ng/uL) and incubated for 10 min. Then, 5 uL of substrate in MES buffer (final concentration 50 uM) were added. The microtiter plates were then incubated at room temperature for […] Then, the reaction was stopped by adding 10 uL of Gly-Phe-DMK in MES-buffer (final concentration 1 uM).
Sequence of Dipeptidyl peptidase 1 (P53634 25-134 limits assumed): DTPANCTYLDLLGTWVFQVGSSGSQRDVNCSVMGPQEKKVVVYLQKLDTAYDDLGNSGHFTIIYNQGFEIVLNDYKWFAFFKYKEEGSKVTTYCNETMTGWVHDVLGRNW
Sequence of Dipeptidyl peptidase 1 (P53634 231-394 limits assumed): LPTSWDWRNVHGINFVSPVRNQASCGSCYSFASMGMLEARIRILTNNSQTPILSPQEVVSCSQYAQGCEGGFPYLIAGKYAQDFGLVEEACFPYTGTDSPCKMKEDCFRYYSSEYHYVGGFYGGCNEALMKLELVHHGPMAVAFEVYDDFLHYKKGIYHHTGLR
Sequence of Dipeptidyl peptidase 1 (P53634 395-463 limits assumed): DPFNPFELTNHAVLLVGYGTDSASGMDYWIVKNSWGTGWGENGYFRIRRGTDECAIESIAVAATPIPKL

As usually defined, the Ki is a dissociation constant, usually derived from enzyme kinetics or from competition with a known ligand.

Molecules are shown by their SMILES.

`CN1C(=O)Cc2ccc(-c3sc(CC(C#N)NC(=O)[C@H]4N[C@@H]5CC[C@H]4C5)c(F)c3Br)cc21` (stereo partly specified): the Ki turned out to be 3.6 nM.
